Source: patent US8486594B2, “P-terphenyl compound mixture and electrophotographic photoreceptors made by using the same” (Hodogaya Chemical Co., Ltd., priority 2006, dated 2013)

Tests used:
[1] = Solubility in organic solvent (tetrahydrofuran); format: physicochemical; conditions: 25° C. tetrahydrofuran; % (weight/volume)
Excerpt: [Solubility in Organic Solvent]
The unit of solubility is % (weight/volume).

[2] = Dissolution of charge-transporting agent in tetrahydrofuran solution of polycarbonate resin for charge-transporting layer; format: physicochemical; conditions: 12.2% tetrahydrofuran solution of polycarbonate resin (Yupilon Z), ultrasonic wave
Experimental: The p-terphenyl compound mixture was completely dissolved by propagating an ultrasonic wave thereto. This solution was applied to the charge-generating layer with a wire-wound bar and dried at 110° C. and ordinary pressure for […] to form a charge-transporting layer having a thickness of 20 μm. Thus, Photoreceptor No. 1 was produced.
Photoreceptor No. 6 was produced in the same manner as in Photoreceptor Example 1, except that the p-terphenyl compound singly synthesized as Compound No. 6 was used in place of the charge-transporting agent used in Photoreceptor Example 1.
Photoreceptor No. 7 was produced in the same manner as in Photoreceptor Example 1, except that the p-terphenyl compound singly synthesized as Compound No. 9 was used in place of the charge-transporting agent used in Photoreceptor Example 1.
The p-terphenyl compound mixture was completely dissolved by propagating an ultrasonic wave thereto. This solution was applied to the charge-generating layer with a wire-wound bar and dried at 110° C. and ordinary pressure for 30 minutes to form a charge-transporting layer having a thickness of 10 μm. Furthermore, a semitransparent metal electrode was formed on the charge-transporting layer by vapor deposition to produce Photoreceptor No. 8. […]

Compound	Solubility in tetrahydrofuran [1] [%]	dissolution of charge-transporting agent in coating solution [2]
Cc1ccc(N(c2ccccc2)c2ccc(-c3ccc(-c4ccc(N(c5ccccc5)c5ccc(C)cc5)cc4)cc3)cc2)cc1 [Compound No. 1, 4,4′-bis(4-methyldiphenylamino)-p-terphenyl]	25.0	–
Cc1ccc(N(c2ccccc2)c2ccc(-c3ccc(-c4ccc(N(c5ccccc5)c5ccc(C)cc5C)cc4)cc3)cc2)c(C)c1 [Compound No. 4, 4,4′-bis(2,4-dimethyldiphenylamino)-p-terphenyl]	10.0	–
Cc1ccc(N(c2ccc(C)cc2)c2ccc(-c3ccc(-c4ccc(N(c5ccc(C)cc5)c5ccc(C)cc5)cc4)cc3)cc2)cc1 [Compound No. 6, 4,4′-bis(4,4′-dimethyldiphenylamino)-p-terphenyl]	2.0	did not dissolve
c1ccc(N(c2ccccc2)c2ccc(-c3ccc(-c4ccc(N(c5ccccc5)c5ccccc5)cc4)cc3)cc2)cc1 [Compound No. 9, 4,4′-bis(diphenylamino)-p-terphenyl]	2.0	did not dissolve
